Reference: patent publication US20230147364A1, “PROPHYLACTIC OR THERAPEUTIC AGENT FOR RNA VIRUS-RELATED DISEASES” (priority 2020, published 2023)
Where a name gives a salt, the structure may show the parent alone.

Legend:
Sendai virus (SeV) [1] = assay: microbe, parasite or virus in culture; format: cell-based; conditions: for IC50: Respirovirus muris, read-out: IC50, infection rate of SeV
SARS-CoV-2 = assay: microbe, parasite or virus in culture; format: cell-based; conditions: for IC50: Severe acute respiratory syndrome coronavirus 2, Vero C1008, read-out: IC50, infection rate of SARS-CoV-2
VSV-G = format: cell-based, vesicular stomatitis virus
Ebola trVLP [2] = test system: Ebola trVLP
Sendai virus (SeV) [3] = format: cell-based
[4] = test system: VSVΔG-SARS2-S (pseudo-type VSV with SARS-CoV-2 spike protein); assay: microbe, parasite or virus in culture; format: cell-based; conditions: Vesicular stomatitis virus, Vero C1008, 20 h, read-out: IC50, VSVΔG-SARS2-S infection
[5] = test system: pseudo-typed VSV having a SARS-CoV spike protein (SARS-CoV-S); assay: microbe, parasite or virus in culture; format: cell-based; conditions: Vesicular stomatitis virus, Vero C1008, 20 h, read-out: IC50, infection with pseudo-typed VSV having SARS-CoV spike protein
Ebola trVLP [6] = assay: microbe, parasite or virus in culture; conditions: Zaire ebolavirus, Huh-7, read-out: IC50, Ebola trVLP infection
Wherever Score (number of EGFP-positive cells, value subjected to correction between batches) is given: test concentration or dose not given here.

CC(C)(C)[C@]1(O)CCN2Cc3cccc4c3[C@H](c3ccccc3CC4)[C@@H]2C1.Cl [(+)-Butaclamol hydrochloride]
Score (number of EGFP-positive cells, value subjected to correction between batches) (Sendai virus (SeV) [1]): 226.08

CN(C)CCC=C1c2ccccc2CCc2ccccc21 [Amitriptyline hydrochloride]
Score (number of EGFP-positive cells, value subjected to correction between batches) (Sendai virus (SeV) [1]): 192.61

O=C1CCc2ccc(OCCCCN3CCN(c4cccc(Cl)c4Cl)CC3)cc2N1 [Aripiprazole]
Score (number of EGFP-positive cells, value subjected to correction between batches) (Sendai virus (SeV) [1]): 86.95

Cc1ccc(-c2cc(C(F)(F)F)nn2-c2ccc(S(N)(=O)=O)cc2)cc1 [Celecoxib]
Score (number of EGFP-positive cells, value subjected to correction between batches) (Sendai virus (SeV) [1]): 208.69

O=C(O)COCCN1CCN(C(c2ccccc2)c2ccc(Cl)cc2)CC1 (stereo not drawn) [Cetirizine dihydrochloride]
Score (number of EGFP-positive cells, value subjected to correction between batches) (Sendai virus (SeV) [1]): 202.89

CN(C)CCCN1c2ccccc2Sc2ccc(Cl)cc21 [Chlorpromazine hydrochloride]
Score (number of EGFP-positive cells, value subjected to correction between batches) (Sendai virus (SeV) [1]): 75.36

CCN(CC)CCOc1ccc(/C(=C(/Cl)c2ccccc2)c2ccccc2)cc1 [Clomifene, clomifene]
effect on virus: SARS-CoV-2 (SARS-CoV-2): + | infection-inhibiting effect on VSV-G (VSV-G): no infection-inhibiting effect was observed | antiviral activity against Ebola trVLP infection (Ebola trVLP [2]): inhibit the Ebola trVLP infection | effect on virus: Ebola virus (Ebola trVLP [2]): +

CC1=NS(=O)(=O)c2cc(Cl)ccc2N1 [Diazoxide]
Score (number of EGFP-positive cells, value subjected to correction between batches) (Sendai virus (SeV) [1]): 173.91

CC(CCc1ccc(O)cc1)NCCc1ccc(O)c(O)c1 (stereo not drawn) [Dobutamine hydrochloride]
Score (number of EGFP-positive cells, value subjected to correction between batches) (Sendai virus (SeV) [1]): 69.56

O=c1[nH]c2ccccc2n1CCCN1CCC(n2c(=O)[nH]c3cc(Cl)ccc32)CC1 [Domperidone]
Score (number of EGFP-positive cells, value subjected to correction between batches) (Sendai virus (SeV) [1]): 139.13

CCOC(=O)C1=C(C)NC(C)=C(C(=O)OC)C1c1cccc(Cl)c1Cl (stereo not drawn) [Felodipine]
Score (number of EGFP-positive cells, value subjected to correction between batches) (Sendai virus (SeV) [1]): 133.33

COc1ccc(Cl)cc1C(=O)NCCc1ccc(S(=O)(=O)NC(=O)NC2CCCCC2)cc1 [Glibenclamide]
Score (number of EGFP-positive cells, value subjected to correction between batches) (Sendai virus (SeV) [1]): 202.89

CNCCCC12CCC(c3ccccc31)c1ccccc12 [Maprotiline hydrochloride]
Score (number of EGFP-positive cells, value subjected to correction between batches) (Sendai virus (SeV) [1]): 191.30

Nc1cc(N2CCCCC2)nc(N)[n+]1[O-] [Minoxidil]
Score (number of EGFP-positive cells, value subjected to correction between batches) (Sendai virus (SeV) [1]): 226.08

COc1ccccc1N1CCN(CC(O)COc2cccc3ccccc23)CC1 (stereo not drawn) [Naftopidil]
Score (number of EGFP-positive cells, value subjected to correction between batches) (Sendai virus (SeV) [1]): 214.49

O=C(NCCO[N+](=O)[O-])c1cccnc1 [Nicorandil]
Score (number of EGFP-positive cells, value subjected to correction between batches) (Sendai virus (SeV) [1]): 185.50

CC(COc1ccccc1)N(CCCl)Cc1ccccc1 (stereo not drawn) [Phenoxybenzamine hydrochloride]
Score (number of EGFP-positive cells, value subjected to correction between batches) (Sendai virus (SeV) [1]): 162.31

CCc1ccc(CCOc2ccc(CC3SC(=O)NC3=O)cc2)nc1 (stereo not drawn) [Pioglitazone, pioglitazone]
Score (number of EGFP-positive cells, value subjected to correction between batches) (Sendai virus (SeV) [1]): 173.91 | effect on virus: Sendai virus (Sendai virus (SeV) [1]): + | IC50 (Sendai virus (SeV) [1]): 4.9 µM | amount of the EGFP mRNA (Sendai virus (SeV) [3]): significantly and markedly reduced | antiviral activity against SARS-CoV-2 infection (SARS-CoV-2): partially suppressed virus infection at a high concentration | effect on virus: SARS-CoV-2 (SARS-CoV-2): + | antiviral activity against Ebola trVLP infection (Ebola trVLP [2]): did not show significant antiviral activity | effect on virus: Ebola virus (Ebola trVLP [2]): −

O=C(Nc1cccc2c(=O)cc(-c3nnn[nH]3)oc12)c1ccc(OCCCCc2ccccc2)cc1 [Pranlukast, pranlukast]
Score (number of EGFP-positive cells, value subjected to correction between batches) (Sendai virus (SeV) [1]): 162.31 | effect on virus: Sendai virus (Sendai virus (SeV) [1]): + | IC50 (Sendai virus (SeV) [1]): 5 µM | amount of the EGFP mRNA (Sendai virus (SeV) [3]): significantly and markedly reduced | antiviral activity against SARS-CoV-2 infection (SARS-CoV-2): tended to reduce the infection rate of SARS-CoV-2, which was not significant | effect on virus: SARS-CoV-2 (SARS-CoV-2): N.S. | antiviral activity against Ebola trVLP infection (Ebola trVLP [2]): did not show significant antiviral activity | effect on virus: Ebola virus (Ebola trVLP [2]): −

CC(CN1c2ccccc2Sc2ccccc21)N(C)C (stereo not drawn) [Promethazine hydrochloride]
Score (number of EGFP-positive cells, value subjected to correction between batches) (Sendai virus (SeV) [1]): 231.88

CCCCC[C@H](O)/C=C/[C@H]1[C@H](O)CC(=O)[C@@H]1C/C=C\CCCC(=O)O [Prostaglandin E2]
Score (number of EGFP-positive cells, value subjected to correction between batches) (Sendai virus (SeV) [1]): 208.69

COc1ccc(CN(CCN(C)C)c2ccccn2)cc1 [Pyrilamine maleate]
Score (number of EGFP-positive cells, value subjected to correction between batches) (Sendai virus (SeV) [1]): 185.50

OCCOCCN1CCN(C2=Nc3ccccc3Sc3ccccc32)CC1 [Quetiapine fumarate]
Score (number of EGFP-positive cells, value subjected to correction between batches) (Sendai virus (SeV) [1]): 133.33

O=C(c1ccc(OCCN2CCCCC2)cc1)c1c(-c2ccc(O)cc2)sc2cc(O)ccc12 [Raloxifene hydrochloride]
Score (number of EGFP-positive cells, value subjected to correction between batches) (Sendai virus (SeV) [1]): 57.97

O=C(c1ccc(OCCN2CCCCC2)cc1)c1c(-c2ccc(O)cc2)sc2cc(O)ccc12 [Raloxifene, raloxifene]
effect on virus: Sendai virus (Sendai virus (SeV) [1]): + | IC50 (Sendai virus (SeV) [1]): 4.3 µM | amount of the EGFP mRNA (Sendai virus (SeV) [3]): significantly and markedly reduced | effect on virus: SARS-CoV-2 (SARS-CoV-2): + | IC50 (SARS-CoV-2): 7.1 µM | IC50 [4]: 3.9 µM | IC50 [5]: 4.1 µM | infection-inhibiting effect on VSV-G (VSV-G): no infection-inhibiting effect was observed | effect on virus: Ebola virus (Ebola trVLP [2]): + | infection-inhibiting activity versus cytotoxicity (cell viability) (Ebola trVLP [2]): significant dissociation between the infection-inhibiting activity and the cytotoxicity | IC50 (Ebola trVLP [6]): 0.88 µM

CO[C@H]1/C=C/O[C@@]2(C)Oc3c(C)c(O)c4c(O)c(c(/C=N/N5CCN(C)CC5)c(O)c4c3C2=O)NC(=O)/C(C)=C\C=C\[C@H](C)[C@H](O)[C@@H](C)[C@@H](O)[C@@H](C)[C@H](OC(C)=O)[C@@H]1C [Rifampin, rifampin]
Score (number of EGFP-positive cells, value subjected to correction between batches) (Sendai virus (SeV) [1]): 75.36 | effect on virus: Sendai virus (Sendai virus (SeV) [1]): + | IC50 (Sendai virus (SeV) [1]): 3.9 µM | amount of the EGFP mRNA (Sendai virus (SeV) [3]): significantly and markedly reduced | antiviral activity against SARS-CoV-2 infection (SARS-CoV-2): tended to reduce the infection rate of SARS-CoV-2, which was not significant | effect on virus: SARS-CoV-2 (SARS-CoV-2): N.S. | antiviral activity against Ebola trVLP infection (Ebola trVLP [2]): did not show significant antiviral activity | effect on virus: Ebola virus (Ebola trVLP [2]): −

CS(=O)(=O)c1ccc(C2=C(c3ccccc3)C(=O)OC2)cc1 [Rofecoxib]
Score (number of EGFP-positive cells, value subjected to correction between batches) (Sendai virus (SeV) [1]): 202.89

CC1=C(CC(=O)O)c2cc(F)ccc2/C1=C\c1ccc([S+](C)[O-])cc1 (stereo not drawn) [Sulindac]
Score (number of EGFP-positive cells, value subjected to correction between batches) (Sendai virus (SeV) [1]): 127.53

CC/C(=C(\c1ccccc1)c1ccc(OCCN(C)C)cc1)c1ccccc1 [Tamoxifen, tamoxifen]
effect on virus: SARS-CoV-2 (SARS-CoV-2): + | antiviral activity against Ebola trVLP infection (Ebola trVLP [2]): inhibit the Ebola trVLP infection | effect on virus: Ebola virus (Ebola trVLP [2]): +

CSc1ccc2c(c1)N(CCC1CCCCN1C)c1ccccc1S2 (stereo not drawn) [Thioridazine hydrochloride]
Score (number of EGFP-positive cells, value subjected to correction between batches) (Sendai virus (SeV) [1]): 217.78

CN(C)CCOc1ccc(/C(=C(/CCCl)c2ccccc2)c2ccccc2)cc1 [Toremifene, toremifene]
effect on virus: SARS-CoV-2 (SARS-CoV-2): + | IC50 (SARS-CoV-2): 10 µM | IC50 [4]: 5.3 µM | IC50 [5]: 7.3 µM | infection-inhibiting effect on VSV-G (VSV-G): no infection-inhibiting effect was observed | antiviral activity against Ebola trVLP infection (Ebola trVLP [2]): inhibit the Ebola trVLP infection | effect on virus: Ebola virus (Ebola trVLP [2]): +

COc1cc(C(=O)NS(=O)(=O)c2ccccc2C)ccc1Cc1cn(C)c2ccc(NC(=O)OC3CCCC3)cc12 [Zafirlukast]
Score (number of EGFP-positive cells, value subjected to correction between batches) (Sendai virus (SeV) [1]): 156.52

CC(c1cc2ccccc2s1)N(O)C(N)=O (stereo not drawn) [Zileuton, zileuton]
Score (number of EGFP-positive cells, value subjected to correction between batches) (Sendai virus (SeV) [1]): 214.49 | effect on virus: Sendai virus (Sendai virus (SeV) [1]): + | IC50 (Sendai virus (SeV) [1]): 4.5 µM | amount of the EGFP mRNA (Sendai virus (SeV) [3]): significantly and markedly reduced | antiviral activity against SARS-CoV-2 infection (SARS-CoV-2): did not exhibit significant antiviral activity | effect on virus: SARS-CoV-2 (SARS-CoV-2): − | antiviral activity against Ebola trVLP infection (Ebola trVLP [2]): did not show significant antiviral activity | effect on virus: Ebola virus (Ebola trVLP [2]): −

CCC(CC)COC(=O)[C@H](C)N[P@](=O)(OC[C@H]1O[C@@](C#N)(c2ccc3c(N)ncnn23)[C@H](O)[C@@H]1O)Oc1ccccc1 [remdesivir]
IC50 (Sendai virus (SeV) [1]): 0.077 µM | amount of the EGFP mRNA (Sendai virus (SeV) [3]): substantially not detected | IC50 (SARS-CoV-2): 0.89 µM | IC50 (Ebola trVLP [6]): 0.12 µM

Ifenprodil tartrate
Score (number of EGFP-positive cells, value subjected to correction between batches) (Sendai virus (SeV) [1]): 214.49
